Test results: PubChem BioAssay (NCI)
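Cultured in 96-well plates, cells were exposed to test compound for 48 hours across five concentrations. GI50: concentration for 50% inhibition of growth. TGI marks complete inhibition of growth.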

Assays:
Test in all cases: growth of human tumour cells (NCI), 48 h
[1] = tested on: NCI-H226 lung
[2] = tested on: M14 melanoma
[3] = tested on: UO-31 renal
[4] = tested on: NCI-H522 lung
[5] = tested on: HL-60(TB) leukemia
[6] = tested on: HCC-2998 colon
[7] = tested on: SF-295 CNS
[8] = tested on: SK-OV-3 ovarian
[9] = tested on: CCRF-CEM leukemia
[10] = tested on: TK-10 renal

| Structure (SMILES) | GI50 [1] | TGI [1] | GI50 [2] | TGI [2] | GI50 [3] | TGI [3] | GI50 [4] | TGI [4] | GI50 [5] | TGI [5] | GI50 [6] | TGI [6] | GI50 [7] | TGI [7] | GI50 [8] | TGI [8] | GI50 [9] | TGI [9] | GI50 [10] | TGI [10] |
| --- | --- | --- | --- | --- | --- | --- | --- | --- | --- | --- | --- | --- | --- | --- | --- | --- | --- | --- | --- | --- |
| O=c1c(-c2ccccc2)coc2cc(OC/C(=N/O)c3ccccc3)ccc12 | 23400 nM | > 100 µM | 14400 nM | 39.7 µM | 18600 nM | 76.5 µM | 7540 nM | 64.4 µM | 21300 nM | 95.9 µM | 10100 nM | 27.2 µM | 29500 nM | 74.9 µM | 25.9 µM | 88.5 µM | 4220 nM | > 100 µM | 13100 nM | 38.4 µM |
| CCN(CC)c1ccc(C(=O)c2ccc(N(CC)CC)cc2)cc1 | 2540 nM | 61.6 µM | 614 nM | > 30.1 µM | 680 nM | 64.2 µM | 278 nM | 1.67 µM | 407 nM | 2.5 µM | 1260 nM | 35.4 µM | 289 nM | 4.17 µM | 0.676 µM | 56.8 µM | 383 nM | > 100 µM | 1330 nM | 68.9 µM |
| CN(C)CC/[N+]([O-])=C(/c1ccccc1)C12CC3CC(CC(C3)C1)C2 |  | 27.5 µM |  | 26.8 µM |  | 24.6 µM |  | 29.2 µM |  | 26.1 µM |  | 37.6 µM |  | 27.5 µM |  | 31.4 µM |  | 34.3 µM |  | 30.7 µM |
| O=C1c2ccccc2S(=O)(=O)c2cc(-c3nn[nH]n3)ccc21 |  | > 100 µM |  | > 100 µM |  | > 100 µM |  | > 100 µM |  | > 100 µM |  | > 100 µM |  | > 100 µM |  | > 100 µM |  | > 100 µM |  | > 100 µM |
| CC(=O)C1=C(O)CC2CC3c4[nH]c5ccccc5c4CCN3CC2C1 (stereo not given) |  | > 100 µM |  | > 100 µM |  | > 100 µM |  | > 100 µM |  | > 100 µM |  | > 100 µM |  | > 100 µM |  | > 100 µM |  | 87.7 µM |  | > 100 µM |
| Cc1cccc(C)c1NC(=O)C(=O)Nn1c(NN)nc2ccccc2c1=O |  | > 100 µM |  | > 100 µM |  | > 100 µM |  | > 100 µM |  | > 100 µM |  | > 100 µM |  | > 100 µM |  | > 100 µM |  | > 100 µM |  | > 100 µM |
| O=C1CCc2c(sc3[nH]c(=S)n(Cc4ccc(Cl)cc4)c(=O)c23)C1 | 1990 nM | 14.5 µM | 477 nM | > 56.3 µM | 277 nM | 1.21 µM | 340 nM | 1.68 µM | 347 nM | 1.81 µM | 577 nM | 2.3 µM | 863 nM | 4.68 µM | 2.86 µM | 8.92 µM | 479 nM | > 100 µM | 988 nM | > 100 µM |
| N#CC1(C#N)C(C#N)(C#N)C12CCCCCC2 |  | 47.5 µM |  | 8.67 µM |  | 32.8 µM |  | 7.88 µM |  | 20.6 µM |  | 35.3 µM |  | > 57.2 µM |  | > 100 µM |  | 6.89 µM |  | 30.5 µM |
| Cc1cccc(NC(=O)c2cccc([N+](=O)[O-])c2O)c1C |  | > 87.7 µM |  | > 100 µM |  | 74.7 µM |  | 58 µM |  | 22.1 µM |  | > 100 µM |  | 80.1 µM |  | > 81.9 µM |  | > 31.6 µM |  | > 100 µM |
| CC(=O)OCc1cc2ccccc2nc1C(Br)(Br)Br |  | 60.8 µM |  | 55 µM |  | 29.5 µM |  | 34 µM |  | 40.9 µM |  | 29.3 µM |  | 32.9 µM |  | 86.6 µM |  | 29.3 µM |  | 36.7 µM |
| C[N+]1=C(/C=C\C=C\c2ccccc2)C(C)(C)c2ccccc21 | 4330 nM | 25.5 µM | 2140 nM | 7.71 µM | 3490 nM | 15 µM | 863 nM | 2.9 µM | 258 nM | 1.62 µM | 3280 nM | 14.9 µM | 10800 nM | 24.6 µM | 11.3 µM | 23.9 µM | 2360 nM | 7.76 µM | 4470 nM | 15.7 µM |
| Cc1cc(N2CCOCC2)cc2[nH]c(-c3c(NC[C@@H](O)c4cccc(Cl)c4)cc[nH]c3=O)nc12 | 361 nM | 5.89 µM | 925 nM | 7.66 µM | 275 nM | 2.98 µM | 1780 nM | 6.18 µM | 56.7 nM | 2.45 µM | 1570 nM | 6.15 µM | 2720 nM | 18.9 µM | 4.56 µM | 25 µM | 4010 nM | > 100 µM | 1550 nM | 4.4 µM |
| C=CCC1C(=O)CC2(C)CC(=O)C(CC=C)C12C (stereo not given) |  | > 100 µM |  | > 100 µM |  | > 100 µM |  | > 100 µM |  | > 100 µM |  | > 100 µM |  | > 100 µM |  | > 100 µM |  | > 100 µM |  | > 100 µM |
